The assay concerns the target T1, ΔF508-CFTR (Homo sapiens, UniProt P13569, DEL508-508).
T1 construct: expressed in transfected cells
The assay can be described thus: Membrane potential optical (FRET/VIPR) assay, identification of correction compounds. Type of assay: cell-based. To be noted: Table 3, assay not given; for Emax: read-out: % Activity / % Efficacy (relative efficacy). An outline of the steps:
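NIH3T3 mouse fibroblasts stably expressing ΔF508-CFTR were exposed to compound for 16 h at 37° C in serum-free medium, then loaded with DiSBAC2(3)/CC2-DMPE. After addition of 10 μM forskolin plus 20 μM genistein in Cl⁻-free gluconate bath (pH 7.4), depolarization from Cl⁻ efflux was read by FRET (VIPR II).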

This passage reports EC50 and Emax results from patent publication US7977322B2 (Vertex Pharmaceuticals Incorporated, priority 2004, dated 2011).

Each structure is given as a SMILES string.

What is called EC50 is the concentration at which the effect is half-maximal.

T1 sequence (P13569 with tags, fused parts or gaps DEL508-508): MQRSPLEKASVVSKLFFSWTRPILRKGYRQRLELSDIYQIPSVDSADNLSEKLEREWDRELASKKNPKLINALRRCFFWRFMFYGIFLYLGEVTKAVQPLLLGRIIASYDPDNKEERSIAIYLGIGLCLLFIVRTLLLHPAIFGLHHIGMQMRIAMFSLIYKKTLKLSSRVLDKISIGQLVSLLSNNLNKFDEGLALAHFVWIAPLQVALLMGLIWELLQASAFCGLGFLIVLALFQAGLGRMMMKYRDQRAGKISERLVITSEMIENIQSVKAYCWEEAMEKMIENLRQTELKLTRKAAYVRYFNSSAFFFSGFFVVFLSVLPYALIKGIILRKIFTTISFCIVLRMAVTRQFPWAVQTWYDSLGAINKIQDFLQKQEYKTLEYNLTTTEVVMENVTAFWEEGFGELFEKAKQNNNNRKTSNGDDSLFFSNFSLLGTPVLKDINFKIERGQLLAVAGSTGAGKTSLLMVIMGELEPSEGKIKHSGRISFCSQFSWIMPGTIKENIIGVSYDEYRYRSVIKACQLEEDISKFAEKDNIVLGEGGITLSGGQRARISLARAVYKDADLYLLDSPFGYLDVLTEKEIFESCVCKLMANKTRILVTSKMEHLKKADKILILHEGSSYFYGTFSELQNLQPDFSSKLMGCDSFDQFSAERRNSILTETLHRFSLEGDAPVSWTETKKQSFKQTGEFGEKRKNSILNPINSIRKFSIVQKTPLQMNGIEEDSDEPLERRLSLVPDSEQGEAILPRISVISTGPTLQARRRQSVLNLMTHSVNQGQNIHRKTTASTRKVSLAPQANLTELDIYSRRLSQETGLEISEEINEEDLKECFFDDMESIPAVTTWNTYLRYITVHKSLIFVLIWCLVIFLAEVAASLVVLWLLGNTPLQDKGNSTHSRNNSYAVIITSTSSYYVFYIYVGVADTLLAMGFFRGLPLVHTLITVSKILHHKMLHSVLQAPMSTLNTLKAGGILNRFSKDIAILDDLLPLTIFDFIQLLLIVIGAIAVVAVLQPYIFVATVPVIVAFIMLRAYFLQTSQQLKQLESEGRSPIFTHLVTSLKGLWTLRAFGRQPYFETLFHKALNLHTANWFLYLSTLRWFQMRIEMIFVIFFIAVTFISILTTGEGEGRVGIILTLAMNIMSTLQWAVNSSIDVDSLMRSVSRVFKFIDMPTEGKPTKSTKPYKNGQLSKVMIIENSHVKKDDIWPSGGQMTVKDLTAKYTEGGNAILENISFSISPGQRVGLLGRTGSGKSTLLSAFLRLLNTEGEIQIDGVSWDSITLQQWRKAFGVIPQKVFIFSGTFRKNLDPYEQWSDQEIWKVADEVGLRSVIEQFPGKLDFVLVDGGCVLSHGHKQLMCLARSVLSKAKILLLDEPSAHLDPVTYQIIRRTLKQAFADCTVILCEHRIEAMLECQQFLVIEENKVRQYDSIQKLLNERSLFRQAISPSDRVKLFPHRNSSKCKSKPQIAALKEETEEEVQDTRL

`CS(=O)(=O)c1ccc(C(c2cnc(NC(=O)C3(c4ccc5c(c4)OCO5)CC3)s2)N2CCOCC2)cc1` (centres unmarked) [Example 382]: the half-maximal effective concentration (EC50) was in the range of 10 to 25 µM and the Emax was > 100%.
For `CC(C)(C)C(c1cnc(NC(=O)C2(c3ccc4c(c3)OCO4)CC2)s1)N1CCCCC1` (centres unmarked) [Example 383], in that order: 10 to 25 µM and > 100%.
For `CC(C)(C)C(c1cnc(NC(=O)C2(c3ccc4c(c3)OCO4)CC2)s1)N1CCC[C@H]1C(N)=O` (some centres unmarked) [Example 384], the concentration giving a half-maximal response (EC50) was 10 to 25 µM and the Emax was > 100%.
As for `CS(=O)(=O)c1ccc(C(c2cnc(NC(=O)C3(c4ccc5c(c4)OCO5)CC3)s2)N2CCCC2)cc1` (centres unmarked) [Example 385], the EC50 is < 10 µM and the Emax was > 100%.
As for `C/C=C/c1cnc(NC(=O)C2(c3ccc4c(c3)OCO4)CC2)s1` [Example 386], the EC50 fell in the range of 10 to 25 µM and the Emax was > 100%.
Consider `COC[C@@H]1CCCN1C(c1cnc(NC(=O)C2(c3ccc4c(c3)OCO4)CC2)s1)C(C)(C)C` (some centres unmarked) [Example 387], for which the EC50 is 10 to 25 µM and the Emax was > 100%.
Turning to `CS(=O)(=O)c1ccc(C(c2cnc(NC(=O)C3(c4ccc5c(c4)OCO5)CC3)s2)N2CCCCC2)cc1` (centres unmarked) [Example 388], the EC50 is < 10 µM and the Emax is > 100%.
For `COCC1CCCN1C(c1cnc(NC(=O)C2(c3ccc4c(c3)OCO4)CC2)s1)C(C)(C)C` (centres unmarked) [Example 389], in that order: 10 to 25 µM and > 100%.
For `CC(C)(C)C(c1cnc(NC(=O)C2(c3ccc4c(c3)OCO4)CC2)s1)N1CC[C@@H](O)C1` (some centres unmarked) [Example 390], in that order: 10 to 25 µM and > 100%.
For `CC(C)(C)C(c1cnc(NC(=O)C2(c3ccc4c(c3)OCO4)CC2)s1)N1CCCC1` (centres unmarked) [Example 391], in that order: 10 to 25 µM and > 100%.
On to `CC(C)(C)C(c1cnc(NC(=O)C2(c3ccc4c(c3)OCO4)CC2)s1)N1CCC(O)CC1` (centres unmarked) [Example 392], for which the EC50 lay in the range of 10 to 25 µM and the Emax was > 100%.
For `CCN(CC)C(c1cnc(NC(=O)C2(c3ccc4c(c3)OCO4)CC2)s1)C(C)(C)C` (centres unmarked) [Example 393], in that order: 10 to 25 µM and > 100%.
As for `CC(C)(C)C(c1cnc(NC(=O)C2(c3ccc4c(c3)OCO4)CC2)s1)N1CCOCC1` (centres unmarked) [Example 394], the half-maximal effective concentration (EC50) is < 10 µM and the Emax was > 100%.
For `CN(C)C(c1cnc(NC(=O)C2(c3ccc4c(c3)OCO4)CC2)s1)C(C)(C)C` (centres unmarked) [Example 395], in that order: 10 to 25 µM and > 100%.
As for `CCC(c1cnc(NC(=O)C2(c3ccc4c(c3)OCO4)CC2)s1)N1CCC(O)CC1` (centres unmarked) [Example 396], the EC50 was 10 to 25 µM and the Emax fell in the range of 25 to 100%.
The matching figures for `CCC(c1cnc(NC(=O)C2(c3ccc4c(c3)OCO4)CC2)s1)N1CCCC1` (centres unmarked) [Example 397]: 10 to 25 µM and 25 to 100%.
In the case of `CCC(c1cnc(NC(=O)C2(c3ccc4c(c3)OCO4)CC2)s1)N1CCOCC1` (centres unmarked) [Example 398], the EC50 was in the range of 10 to 25 µM and the Emax is 25 to 100%.
For `COc1ccccc1C(c1cnc(NC(=O)C2(c3ccc4c(c3)OCO4)CC2)s1)N1CCOCC1` (centres unmarked) [Example 399], in that order: < 10 µM and > 100%.
The matching figures for `COc1ccc(C(c2cnc(NC(=O)C3(c4ccc5c(c4)OCO5)CC3)s2)N2CCOCC2)cc1` (centres unmarked) [Example 400]: < 10 µM and > 100%.
The matching figures for `CCC(c1cnc(NC(=O)C2(c3ccc4c(c3)OCO4)CC2)s1)N1CCC[C@@H]1COC` (some centres unmarked) [Example 401]: 10 to 25 µM and > 100%.
With `CCC(c1cnc(NC(=O)C2(c3ccc4c(c3)OCO4)CC2)s1)N1CC[C@@H](O)C1` (some centres unmarked) [Example 402], the 50% effective concentration (EC50) fell in the range of 10 to 25 µM and the Emax was > 100%.
For `CCC(c1cnc(NC(=O)C2(c3ccc4c(c3)OCO4)CC2)s1)N1CCCCC1` (centres unmarked) [Example 403], in that order: 10 to 25 µM and > 100%.
For `CCC(c1cnc(NC(=O)C2(c3ccc4c(c3)OCO4)CC2)s1)N1CCC[C@H]1COC` (some centres unmarked) [Example 404], in that order: 10 to 25 µM and > 100%.
For `CN1CCCC1CCNC(c1cnc(NC(=O)C2(c3ccc4c(c3)OCO4)CC2)s1)c1ccccc1Cl` (centres unmarked) [Example 405], in that order: < 10 µM and 25 to 100%.
Consider `O=C(Nc1ncc(C(NCCN2CCCC2)c2ccccc2Cl)s1)C1(c2ccc3c(c2)OCO3)CC1` (centres unmarked) [Example 406], for which the concentration giving a half-maximal response (EC50) was < 10 µM and the Emax is 25 to 100%.
For `O=C1NOC[C@@H]1NC(c1cnc(NC(=O)C2(c3ccc4c(c3)OCO4)CC2)s1)c1ccccc1Cl` (some centres unmarked) [Example 407], in that order: 10 to 25 µM and 25 to 100%.
For `O=C(Nc1ncc(C(NCCCn2ccnc2)c2ccccc2Cl)s1)C1(c2ccc3c(c2)OCO3)CC1` (centres unmarked) [Example 408], in that order: < 10 µM and 25 to 100%.
`O=C(Nc1ncc(C(NCC2CCCCC2)c2ccccc2Cl)s1)C1(c2ccc3c(c2)OCO3)CC1` (centres unmarked) [Example 409]: the 50% effective concentration (EC50) is < 10 µM and the Emax is > 100%.
The matching figures for `CCN(CCO)C(c1cnc(NC(=O)C2(c3ccc4c(c3)OCO4)CC2)s1)c1ccccc1Cl` (centres unmarked) [Example 410]: < 10 µM and > 100%.
For `O=C(Nc1ncc(C(NC2CCCCC2)c2ccccc2Cl)s1)C1(c2ccc3c(c2)OCO3)CC1` (centres unmarked) [Example 411], in that order: < 10 µM and > 100%.
For `O=C(Nc1ncc(C(NCc2ccco2)c2ccccc2Cl)s1)C1(c2ccc3c(c2)OCO3)CC1` (centres unmarked) [Example 412], in that order: < 10 µM and > 100%.
Take `CN(C1CCCCC1)C(c1cnc(NC(=O)C2(c3ccc4c(c3)OCO4)CC2)s1)c1ccccc1Cl` (centres unmarked) [Example 413]: the EC50 was < 10 µM and the Emax was > 100%.
On to `O=C(Nc1ncc(C(NC2CCCC2)c2ccccc2Cl)s1)C1(c2ccc3c(c2)OCO3)CC1` (centres unmarked) [Example 414], for which the 50% effective concentration (EC50) was < 10 µM and the Emax was > 100%.
The matching figures for `O=C(Nc1ncc(C(NC2CC2)c2ccccc2Cl)s1)C1(c2ccc3c(c2)OCO3)CC1` (centres unmarked) [Example 415]: < 10 µM and > 100%.
Consider `O=C(Nc1ncc(C(NCCO)c2ccccc2Cl)s1)C1(c2ccc3c(c2)OCO3)CC1` (centres unmarked) [Example 416], for which the EC50 is < 10 µM and the Emax is > 100%.
The matching figures for `O=C(Nc1ncc(C(NC2CCC2)c2ccccc2Cl)s1)C1(c2ccc3c(c2)OCO3)CC1` (centres unmarked) [Example 417]: < 10 µM and > 100%.
The matching figures for `NC(=O)C1CCCN(C(c2cnc(NC(=O)C3(c4ccc5c(c4)OCO5)CC3)s2)c2ccccc2Cl)C1` (centres unmarked) [Example 418]: < 10 µM and > 100%.
For `O=C(Nc1ncc(C(c2ccccc2Cl)N2CC[C@@H](O)C2)s1)C1(c2ccccc2Cl)CC1` (some centres unmarked) [Example 419], in that order: < 10 µM and > 100%.
Regarding `COc1ccc(C2(C(=O)Nc3ncc(C(c4ccccc4Cl)N4CC[C@@H](O)C4)s3)CC2)cc1` (some centres unmarked) [Example 420], the EC50 was < 10 µM and the Emax is > 100%.
The matching figures for `O=C(Nc1ncc(C(c2ccccc2Cl)N2CC[C@@H](O)C2)s1)C1(c2ccc(F)cc2)CC1` (some centres unmarked) [Example 421]: 10 to 25 µM and > 100%.
